Test system: P12-Ichikawa
Experiment: cell viability relative to DMSO control; higher = less cytotoxic
Details: 48 h
Outline: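 Three leukemia lines were tested: NOMO1 and SEM at 500 cells/well and P12-Ichikawa at 1000 cells/well. Each was adapted for at least four passages in each medium and seeded in 5 μl in 1536-well plates, and library compounds in DMSO were pin-dosed from 47 μM to 0.79 nM in 11 threefold steps. After 48 h at 37°C, CellTiter-Glo One luminescence was read. Viability is a percentage relative to DMSO wells on each plate, with cell-free wells as background.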

[1] = HPLM + 10% dialyzed FBS, 0.000781 µM
[2] = HPLM + 10% dialyzed FBS, 0.00234 µM
[3] = HPLM + 10% dialyzed FBS, 0.00702 µM
[4] = HPLM + 10% dialyzed FBS, 0.0211 µM
[5] = HPLM + 10% dialyzed FBS, 0.0632 µM
[6] = HPLM + 10% dialyzed FBS, 0.19 µM
[7] = HPLM + 10% dialyzed FBS, 0.569 µM
[8] = HPLM + 10% dialyzed FBS, 1.71 µM
[9] = HPLM + 10% dialyzed FBS, 5.12 µM
[10] = HPLM + 10% dialyzed FBS, 15.4 µM
[11] = HPLM + 10% dialyzed FBS, 46.1 µM
[12] = RPMI 5 mM glucose + 10% FBS, 0.000781 µM
[13] = RPMI 5 mM glucose + 10% FBS, 0.00234 µM
[14] = RPMI 5 mM glucose + 10% FBS, 0.00702 µM
[15] = RPMI 5 mM glucose + 10% FBS, 0.0211 µM
[16] = RPMI 5 mM glucose + 10% FBS, 0.0632 µM
[17] = RPMI 5 mM glucose + 10% FBS, 0.19 µM
[18] = RPMI 5 mM glucose + 10% FBS, 0.569 µM
[19] = RPMI 5 mM glucose + 10% FBS, 1.71 µM
[20] = RPMI 5 mM glucose + 10% FBS, 5.12 µM
[21] = RPMI 5 mM glucose + 10% FBS, 15.4 µM
[22] = RPMI 5 mM glucose + 10% FBS, 46.1 µM
[23] = RPMI 5 mM glucose + 10% dialyzed FBS, 0.000781 µM
[24] = RPMI 5 mM glucose + 10% dialyzed FBS, 0.00234 µM
[25] = RPMI 5 mM glucose + 10% dialyzed FBS, 0.00702 µM
[26] = RPMI 5 mM glucose + 10% dialyzed FBS, 0.0211 µM
[27] = RPMI 5 mM glucose + 10% dialyzed FBS, 0.0632 µM
[28] = RPMI 5 mM glucose + 10% dialyzed FBS, 0.19 µM
[29] = RPMI 5 mM glucose + 10% dialyzed FBS, 0.569 µM
[30] = RPMI 5 mM glucose + 10% dialyzed FBS, 1.71 µM
[31] = RPMI 5 mM glucose + 10% dialyzed FBS, 5.12 µM
[32] = RPMI 5 mM glucose + 10% dialyzed FBS, 15.4 µM
[33] = RPMI 5 mM glucose + 10% dialyzed FBS, 46.1 µM

SMILES	cell viability [1] [%]	cell viability [2] [%]	cell viability [3] [%]	cell viability [4] [%]	cell viability [5] [%]	cell viability [6] [%]	cell viability [7] [%]	cell viability [8] [%]	cell viability [9] [%]	cell viability [10] [%]	cell viability [11] [%]	cell viability [12] [%]	cell viability [13] [%]	cell viability [14] [%]	cell viability [15] [%]	cell viability [16] [%]	cell viability [17] [%]	cell viability [18] [%]	cell viability [19] [%]	cell viability [20] [%]	cell viability [21] [%]	cell viability [22] [%]	cell viability [23] [%]	cell viability [24] [%]	cell viability [25] [%]	cell viability [26] [%]	cell viability [27] [%]	cell viability [28] [%]	cell viability [29] [%]	cell viability [30] [%]	cell viability [31] [%]	cell viability [32] [%]	cell viability [33] [%]
c1ccc(CNc2nc(N3CCOc4ccccc43)nc3c2CCCC3)cc1	101	102	107	108	117	99.5	128	115	109	107	107	102	99.9	100	106	105	110	111	106	108	100	96.9	102	112	107	114	110	105	110	116	105	103	104
CN1C(=O)C[C@H](C(=O)N[C@@H](Cc2cnc[nH]2)C(=O)N2CCC[C@H]2C(N)=O)NC1=O	–	–	–	–	–	–	–	–	–	–	–	–	–	–	–	–	–	–	–	–	–	–	114	128	121	115	132	123	118	120	119	119	90.6
C=CCc1cccc(/C=N/NC(=O)CN2CCN(Cc3ccccc3)CC2)c1O	120	115	119	118	116	117	117	106	97	64.2	7.9	110	102	113	–	110	113	108	108	94.5	52.9	17.1	109	99.7	109	114	109	101	112	102	87.5	44.8	13.5
Cc1cc(Nc2cc(CN3CCOCC3)c3nc(C)c(Cc4ccc(Cl)cc4F)n3n2)[nH]n1	112	105	119	116	109	111	114	104	96.5	34.8	78.4	120	114	117	117	110	116	96.2	109	86.6	48.1	56.5	106	101	115	114	104	111	99.7	104	95.8	51.5	62.7
NC(=O)C1CCCc2c1[nH]c1ccc(Cl)cc21 (stereo unspecified)	112	112	113	114	115	110	105	102	83.4	46.2	38.2	107	111	111	104	108	112	109	109	103	59.8	32.3	114	101	112	107	112	106	111	94.4	93.8	48.2	18.3
CN1CCN2c3ncccc3Cc3ccccc3C2C1 (stereo unspecified)	122	119	113	120	122	115	114	119	114	108	111	134	118	124	132	129	125	135	121	117	112	101	125	118	113	120	121	118	128	115	111	108	100
NC(=O)c1cccc2nc(-c3ccc([C@H]4CCCN4)cc3F)[nH]c12	99.9	110	105	114	115	111	120	114	105	95.8	84.2	97	97.6	100	105	114	113	123	112	109	103	70.1	99.5	105	110	119	109	119	121	116	120	107	65.1
C[C@]12CC[C@@H]3c4ccc(O)cc4CC[C@H]3[C@@H]1C[C@@H](O)[C@@H]2O	117	115	114	120	113	111	119	110	112	104	104	120	115	116	114	125	129	126	124	123	108	107	116	120	125	123	115	117	123	118	109	114	105
